# Where two headings read alike, the source gives them in different places.
# Biological target: T1, MCH receptor (Homo sapiens, UniProt Q99705)
# T1 construct: expressed in transfected cells; host or cells: CHO cells
# Experiment: MCH Receptor Binding Assay ([125I]-MCH, SPA, membranes from CHO cells expressing the MCH receptor)
# Details: CHO cell membranes
# Method: MCH Receptor Binding Assay:
# Membranes from CHO cells expressing the MCH receptor were prepared by lysing cells with 5 mM HEPES for 15 min at 4C. Cell lysates were centrifuged ([…], 15 min) and the pellet was resuspended in 5 mM HEPES. For each 96-well plate (Microlite, Dynex Technologies), 1 mg of cell membranes were incubated with 10 mg of wheat germ agglutinin SPA beads (Amersham) for 5 min at 4 C in a volume of 10 ml of binding buffer (25 mM HEPES, 10 mM MGCl2, 10 mM NaCl, 5 mM MnCl2, 0.1% BSA). The membrane/bead mixture was centrifuged (1500×g, 3.5 min), the supernatant was aspirated, and the pellet was resuspended in 10 ml binding buffer. The centrifugation, aspiration and resuspension were then repeated. The membrane/bead mixture (100 μl) was then added to 96-well plates containing 50 μof 500 pM [^125I]-MCH (NEN) and […] of the appropriate concentration of compound (4× the desired final concentration). Nonspecific binding was determined by including 1 μM MCH in the binding reaction. The binding reaction was incubated at room temperature for 2 h. Plates were then analyzed in a TOPCOUNT microplate scintillation counter (Packard). Data was analyzed and Ki values were determined using GraphPad Prism.
# T1 sequence (Q99705 whole entry): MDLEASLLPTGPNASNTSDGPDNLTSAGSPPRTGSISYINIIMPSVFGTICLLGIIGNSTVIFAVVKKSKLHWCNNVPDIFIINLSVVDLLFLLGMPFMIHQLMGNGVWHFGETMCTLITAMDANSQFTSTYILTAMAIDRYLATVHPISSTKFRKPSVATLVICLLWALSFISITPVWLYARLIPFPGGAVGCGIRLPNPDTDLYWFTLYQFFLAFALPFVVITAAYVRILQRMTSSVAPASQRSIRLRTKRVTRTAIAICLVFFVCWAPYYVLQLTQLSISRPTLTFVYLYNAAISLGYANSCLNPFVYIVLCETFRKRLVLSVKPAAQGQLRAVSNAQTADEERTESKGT
SMILES,Ki (read-out: Activity (Ki class)) [nM],Ki (read-out: Ki value) [nM]
N#Cc1cccc(-c2ccc3c(c2)CCN(CC(=O)Nc2cc(Cl)cc(Cl)c2)C32CCN(Cc3ccoc3)CC2)c1 [Compound 11i],30 to 100,
CC(C)N1CCC2(CC1)c1ccc(-c3cccc(C#N)c3)cc1CCN2CC(=O)Nc1ccc(Cl)c(Cl)c1 [Compound 7e],> 100,
N#Cc1cccc(-c2ccc3c(c2)CCN(CC(=O)Nc2ccc(Cl)c(C(F)(F)F)c2)C32CCN(CC3CC3)CC2)c1 [Compound 8i],> 100,
CN(C)S(=O)(=O)N1CCC2(CC1)c1ccc(-c3cccc(C#N)c3)cc1CCN2CC(=O)Nc1cc(Cl)cc(Cl)c1 [Compound 30d],> 100,
N#Cc1cccc(-c2ccc3c(c2)CCN(CC(=O)Nc2ccc(F)c(Cl)c2)C32CCN(CC3CC3)CC2)c1 [Compound 8a],< 30,
CC(C)N1CCC2(CC1)c1ccc(-c3cccc(C#N)c3)cc1CCN2CC(=O)Nc1cc(Cl)cc(Cl)c1 [Compound 7a],< 30,
CC(C)N1CCC2(CC1)c1ccc(-c3cccc(C#N)c3)cc1CCN2CC(=O)Nc1cc(F)cc(F)c1 [Compound 7c],30 to 100,
N#Cc1cccc(-c2ccc3c(c2)CCN(CC(=O)Nc2cc(Cl)cc(Cl)c2)C32CCN(C3CCCCCC3)CC2)c1 [Compound 11a],< 30,11
CC(C)(C)OC(=O)N1CCC2(CC1)c1ccc(-c3cccc(C#N)c3)cc1CCN2CC(=O)Nc1cc(Cl)cc(Cl)c1 [Compound 30a],> 100,
N#Cc1cccc(-c2ccc3c(c2)CCN(CC(=O)Nc2cccc(Cl)c2)C32CCN(CC3CC3)CC2)c1 [Compound 8c],30 to 100,
CC(C)N1CCC2(CC1)c1ccc(-c3cccc(C#N)c3)cc1CCN2Cc1nc2ccccc2[nH]1 [Compound 12a],> 100,
N#Cc1cccc(-c2ccc3c(c2)CCN(CC(=O)Nc2ccc(F)c(F)c2)C32CCN(CC3CC3)CC2)c1 [Compound 8d],30 to 100,
CS(=O)(=O)N1CCC2(CC1)c1ccc(-c3cccc(C#N)c3)cc1CCN2CC(=O)Nc1cc(Cl)cc(Cl)c1 [Compound 30c],> 100,
N#Cc1cccc(-c2ccc3c(c2)CCN(CC(=O)Nc2cc(Cl)cc(Cl)c2)C32CCN(C3CCOCC3)CC2)c1 [Compound 11h],< 30,
N#Cc1cccc(-c2ccc3c(c2)CCN(Cc2nc4cc(Cl)c(Cl)cc4[nH]2)C32CCN(CC3CC3)CC2)c1 [Compound 12f],> 100,
N#Cc1cccc(-c2ccc3c(c2)CCN(CC(=O)Nc2cc(Cl)cc(Cl)c2)C32CCN(C3CCSC3)CC2)c1 (stereo not shown) [Compound 11j],30 to 100,
CC(C)N1CCC2(CC1)c1ccc(-c3cccc(C#N)c3)cc1CCN2CC(=O)Nc1ccc(F)c(Cl)c1 [Compound 7b],30 to 100,

SMILES,Ki (read-out: Activity (Ki class)) [nM],Ki (read-out: Ki value) [nM]
N#Cc1cccc(-c2ccc3c(c2)CCN(CC(=O)Nc2cc(Cl)cc(Cl)c2)C32CCN(C3CCCC3)CC2)c1 [Compound 11d],< 30,
N#Cc1cccc(-c2ccc3c(c2)CCN(CC(=O)Nc2ccc(Cl)c(Cl)c2)C32CCN(CC3CC3)CC2)c1 [Compound 8h],> 100,
N#Cc1cccc(-c2ccc3c(c2)CCN(Cc2nc4cc(Cl)c(Cl)cc4[nH]2)C32CCNCC2)c1 [Compound 12d],> 100,
N#Cc1cccc(-c2ccc3c(c2)CCN(Cc2nc4cc(F)c(Cl)cc4[nH]2)C32CCNCC2)c1 [Compound 12e],> 100,
CCN1CCC2(CC1)c1ccc(-c3cccc(C#N)c3)cc1CCN2CC(=O)Nc1cc(Cl)cc(Cl)c1 [Compound 11g],30 to 100,
N#Cc1cccc(-c2ccc3c(c2)CCN(CC(=O)Nc2ccc(Cl)cc2)C32CCN(CC3CC3)CC2)c1 [Compound 8b],> 100,
N#Cc1cccc(-c2ccc3c(c2)CCN(CC(=O)Nc2cc(F)cc(C(F)(F)F)c2)C32CCN(CC3CC3)CC2)c1 [Compound 8f],30 to 100,
N#Cc1cccc(-c2ccc3c(c2)CCN(CC(=O)Nc2cc(Cl)cc(Cl)c2)C32CCN(CC3CC3)CC2)c1 [Compound 11c],< 30,
N#Cc1cccc(-c2ccc3c(c2)CCN(CC(=O)Nc2cc(Cl)cc(Cl)c2)C32CCN(CCO)CC2)c1 [Compound 11e],30 to 100,
N#Cc1cccc(-c2ccc3c(c2)CCN(CC(=O)Nc2cc(Cl)cc(Cl)c2)C32CCN(C3CCC3)CC2)c1 [Compound 11b],< 30,
CC(=O)N1CCC2(CC1)c1ccc(-c3cccc(C#N)c3)cc1CCN2CC(=O)Nc1cc(Cl)cc(Cl)c1 [Compound 30b],> 100,
N#Cc1cccc(-c2ccc3c(c2)CCN(CC(=O)Nc2cc(F)cc(F)c2)C32CCN(CC3CC3)CC2)c1 [Compound 8g],30 to 100,
CC(C)N1CCC2(CC1)c1ccc(-c3cccc(C#N)c3)cc1CCN2CC(=O)Nc1ccc(Cl)c(C(F)(F)F)c1 [Compound 7d],> 100,
N#Cc1cccc(-c2ccc3c(c2)CCN(CC(=O)Nc2cc(Cl)cc(Cl)c2)C32CCNCC2)c1 [Compound 10c],30 to 100,
N#Cc1cccc(-c2ccc3c(c2)CCN(CC(=O)Nc2ccc(F)c(C(F)(F)F)c2)C32CCN(CC3CC3)CC2)c1 [Compound 8e],< 30,
CN1CCC2(CC1)c1ccc(-c3cccc(C#N)c3)cc1CCN2CC(=O)Nc1cc(Cl)cc(Cl)c1 [Compound 11f],30 to 100,

# Source: US7109207B2, “Spirosubstituted piperidines as selective melanin concentrating hormone receptor antagonists for the treatment of obesity” (Schering Corporation, priority 2002, dated 2006)
